PubChem BioAssay (NCI)
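The compound was tested at five concentrations on cells cultured in 96-well plates, with a 48-hour exposure period. Abbreviation: GI50, concentration required for 50% inhibition of growth. TGI marks complete inhibition of growth.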

How the values were obtained:
Assay in all cases: growth of human tumour cells (NCI), 48 h
786-0 renal = system: 786-0 renal
A498 renal = system: A498 renal
A549 NSCLC = system: A549 NSCLC
ACHN renal = system: ACHN renal
BT-549 breast = system: BT-549 breast
CAKI-1 renal = system: CAKI-1 renal
CCRF-CEM leukemia = system: CCRF-CEM leukemia
COLO 205 colon = system: COLO 205 colon
DU-145 prostate = system: DU-145 prostate
EKVX NSCLC = system: EKVX NSCLC
HCC-2998 colon = system: HCC-2998 colon
HCT-116 colon = system: HCT-116 colon
HCT-15 colon = system: HCT-15 colon
HL-60(TB) leukemia = system: HL-60(TB) leukemia
HOP-62 NSCLC = system: HOP-62 NSCLC
HOP-92 NSCLC = system: HOP-92 NSCLC
HS 578T breast = system: HS 578T breast
HT29 colon = system: HT29 colon
IGROV1 ovarian = system: IGROV1 ovarian
K-562 leukemia = system: K-562 leukemia
KM12 colon = system: KM12 colon
LOX IMVI melanoma = system: LOX IMVI melanoma
M14 melanoma = system: M14 melanoma
MALME-3M melanoma = system: MALME-3M melanoma
MCF7 breast = system: MCF7 breast
MDA-MB-231 breast = system: MDA-MB-231 breast
MDA-MB-435 = system: MDA-MB-435
MOLT-4 leukemia = system: MOLT-4 leukemia
NCI-H226 lung = system: NCI-H226 lung
NCI-H460 lung = system: NCI-H460 lung
NCI-H522 lung = system: NCI-H522 lung
NCI/ADR-RES ovarian = system: NCI/ADR-RES ovarian
OVCAR-3 ovarian = system: OVCAR-3 ovarian
OVCAR-4 ovarian = system: OVCAR-4 ovarian
OVCAR-5 ovarian = system: OVCAR-5 ovarian
OVCAR-8 ovarian = system: OVCAR-8 ovarian
PC-3 prostate = system: PC-3 prostate
RPMI-8226 leukemia = system: RPMI-8226 leukemia
RXF 393 renal = system: RXF 393 renal
SF-268 CNS = system: SF-268 CNS
SF-295 CNS = system: SF-295 CNS
SF-539 CNS = system: SF-539 CNS
SK-MEL-2 melanoma = system: SK-MEL-2 melanoma
SK-MEL-28 melanoma = system: SK-MEL-28 melanoma
SK-MEL-5 melanoma = system: SK-MEL-5 melanoma
SK-OV-3 ovarian = system: SK-OV-3 ovarian
SN12C renal = system: SN12C renal
SNB-19 CNS = system: SNB-19 CNS
SNB-75 CNS = system: SNB-75 CNS
SR leukemia = system: SR leukemia
SW-620 colon = system: SW-620 colon
T-47D breast = system: T-47D breast
TK-10 renal = system: TK-10 renal
U251 CNS = system: U251 CNS
UACC-257 melanoma = system: UACC-257 melanoma
UACC-62 melanoma = system: UACC-62 melanoma
UO-31 renal = system: UO-31 renal

Q: Which results are given for `CN1CCN(Cc2ccc(NC(=O)c3cncc(C#Cc4cnc5ccc(NCCCO)nn45)c3)cc2C(F)(F)F)CC1`?
A: GI50 (786-0 renal): 299 nM; TGI (786-0 renal): 969 nM; GI50 (A498 renal): 314 nM; TGI (A498 renal): 1040 nM; GI50 (A549 NSCLC): 202 nM; TGI (A549 NSCLC): 1110 nM; GI50 (ACHN renal): 483 nM; TGI (ACHN renal): 1490 nM; GI50 (BT-549 breast): 343 nM; TGI (BT-549 breast): 864 nM; GI50 (CAKI-1 renal): 177 nM; TGI (CAKI-1 renal): 1220 nM; GI50 (CCRF-CEM leukemia): 24.8 nM; TGI (CCRF-CEM leukemia): 1810 nM; GI50 (COLO 205 colon): 77.5 nM; TGI (COLO 205 colon): 188 nM; GI50 (DU-145 prostate): 170 nM; TGI (DU-145 prostate): 1060 nM; GI50 (EKVX NSCLC): 148 nM; TGI (EKVX NSCLC): 924 nM; GI50 (HCC-2998 colon): 222 nM; TGI (HCC-2998 colon): 1410 nM; GI50 (HCT-116 colon): 40.5 nM; TGI (HCT-116 colon): 221 nM; GI50 (HCT-15 colon): 851 nM; TGI (HCT-15 colon): 2990 nM; GI50 (HL-60(TB) leukemia): 73.3 nM; TGI (HL-60(TB) leukemia): 462 nM; GI50 (HOP-62 NSCLC): 150 nM; TGI (HOP-62 NSCLC): 999 nM; GI50 (HOP-92 NSCLC): 21.1 nM; TGI (HOP-92 NSCLC): 124 nM; GI50 (HS 578T breast): 85.5 nM; TGI (HS 578T breast): 370 nM; GI50 (HT29 colon): 108 nM; TGI (HT29 colon): 439 nM; GI50 (IGROV1 ovarian): 104 nM; TGI (IGROV1 ovarian): 399 nM; GI50 (K-562 leukemia): 5 nM; TGI (K-562 leukemia): 1840 nM; GI50 (KM12 colon): 11.2 nM; TGI (KM12 colon): 876 nM; GI50 (LOX IMVI melanoma): 59.9 nM; TGI (LOX IMVI melanoma): 270 nM; GI50 (M14 melanoma): 96.3 nM; TGI (M14 melanoma): 280 nM; GI50 (MALME-3M melanoma): 97.5 nM; TGI (MALME-3M melanoma): 438 nM; GI50 (MCF7 breast): 43.7 nM; TGI (MCF7 breast): 404 nM; GI50 (MDA-MB-231 breast): 41.5 nM; TGI (MDA-MB-231 breast): 303 nM; GI50 (MDA-MB-435): 71.1 nM; TGI (MDA-MB-435): 608 nM; GI50 (MOLT-4 leukemia): 43.5 nM; TGI (MOLT-4 leukemia): 1620 nM; GI50 (NCI-H226 lung): 62 nM; TGI (NCI-H226 lung): 311 nM; GI50 (NCI-H460 lung): 171 nM; TGI (NCI-H460 lung): 610 nM; GI50 (NCI-H522 lung): 68.5 nM; TGI (NCI-H522 lung): 247 nM; GI50 (NCI/ADR-RES ovarian): 7220 nM; TGI (NCI/ADR-RES ovarian): 18200 nM; GI50 (OVCAR-3 ovarian): 137 nM; TGI (OVCAR-3 ovarian): 795 nM; GI50 (OVCAR-4 ovarian): 166 nM; TGI (OVCAR-4 ovarian): 1330 nM; GI50 (OVCAR-5 ovarian): 183 nM; TGI (OVCAR-5 ovarian): 1990 nM; GI50 (OVCAR-8 ovarian): 204 nM; TGI (OVCAR-8 ovarian): 1030 nM; GI50 (PC-3 prostate): 243 nM; TGI (PC-3 prostate): 2820 nM; GI50 (RPMI-8226 leukemia): 206 nM; TGI (RPMI-8226 leukemia): 898 nM; GI50 (RXF 393 renal): 169 nM; TGI (RXF 393 renal): 548 nM; GI50 (SF-268 CNS): 126 nM; TGI (SF-268 CNS): 850 nM; GI50 (SF-295 CNS): 457 nM; TGI (SF-295 CNS): 1720 nM; GI50 (SF-539 CNS): 23.9 nM; TGI (SF-539 CNS): 125 nM; GI50 (SK-MEL-2 melanoma): 79 nM; TGI (SK-MEL-2 melanoma): 178 nM; GI50 (SK-MEL-28 melanoma): 245 nM; TGI (SK-MEL-28 melanoma): 1000 nM; GI50 (SK-MEL-5 melanoma): 617 nM; TGI (SK-MEL-5 melanoma): 1270 nM; GI50 (SK-OV-3 ovarian): 308 nM; TGI (SK-OV-3 ovarian): 1590 nM; GI50 (SN12C renal): 90.7 nM; TGI (SN12C renal): 1200 nM; GI50 (SNB-19 CNS): 304 nM; TGI (SNB-19 CNS): 2920 nM; GI50 (SNB-75 CNS): 26.3 nM; TGI (SNB-75 CNS): 137 nM; GI50 (SR leukemia): 32.2 nM; TGI (SR leukemia): 859 nM; GI50 (SW-620 colon): 71.4 nM; TGI (SW-620 colon): 368 nM; GI50 (T-47D breast): 414 nM; TGI (T-47D breast): 3260 nM; GI50 (TK-10 renal): 384 nM; TGI (TK-10 renal): 2150 nM; GI50 (U251 CNS): 290 nM; TGI (U251 CNS): 1020 nM; GI50 (UACC-257 melanoma): 318 nM; TGI (UACC-257 melanoma): 1500 nM; GI50 (UACC-62 melanoma): 210 nM; TGI (UACC-62 melanoma): 974 nM; GI50 (UO-31 renal): 1320 nM; TGI (UO-31 renal): 3690 nM
